Series [1] is described as follows: logP determination by HPLC (EEC Directive 79/831 Annexe V.A8). As to conditions: gradient method, acetonitrile/0.1% aqueous phosphoric acid. The format is physicochemical. On the procedure: The logP values were determined in accordance with EEC Directive 79/831 Annexe V.A8 by HPLC (gradient method, acetonitrile/0.1% aqueous phosphoric acid).
The subject of the next series is Phytophthora infestans. The format is in vivo. As to conditions: tomato, protective; application rate 50 g/ha; evaluation three days after inoculation; 100% means no infection.

Turning to `Cc1c(Cl)nc(Br)n1S(=O)(=O)c1cccnc1Cl` [Example 1, 3-[(2-bromo-4-chloro-5-methyl-1H-imidazol-1-yl)-sulfonyl]-2-chloropyridine], the melting point (as a rule, the temperature of the solid-liquid transition) fell in the range of 144 to 146 °C. Also, the chromatographic logP (in general, lipophilicity estimated from chromatographic retention) in series [1] worked out at 2.9.
For `Cc1c(Br)nc(Br)n1S(=O)(=O)c1cccnc1Cl` [Example 2] the same measures were 154 to 158 °C and 2.97.
For `Cc1c(Cl)nc(Br)n1S(=O)(=O)c1cccnc1Cl` [drawing 18], in the series with Phytophthora infestans, the Efficacy in % was 94%.
Take `Cc1c(Br)nc(Br)n1S(=O)(=O)c1cccnc1Cl` [drawing 19]: the Efficacy in % in the series with Phytophthora infestans was 94%.

The values above are taken from US20040242662A1 (priority 2000, published 2004).
